Data: ChEMBL document CHEMBL2331176, “1,5-Diphenylpenta-2,4-dien-1-ones as potent and selective monoamine oxidase-B inhibitors” (Eur J Med Chem, 2013)

Columns and labels:
[1] = species on record: Homo sapiens; assay: Selectivity index, ratio of IC50 for recombinant human MAO-A expressed in baculovirus infected BT1-TN-5B1-4 cells to recombinant human MAO-B expressed in baculovirus infected BT1-TN-5B1-4 cells
[2] = target: T1, Amine oxidase [flavin-containing] B (Homo sapiens, UniProt P27338); assay: biochemical; assay type: cell-based
T1 sequence (P27338 whole entry): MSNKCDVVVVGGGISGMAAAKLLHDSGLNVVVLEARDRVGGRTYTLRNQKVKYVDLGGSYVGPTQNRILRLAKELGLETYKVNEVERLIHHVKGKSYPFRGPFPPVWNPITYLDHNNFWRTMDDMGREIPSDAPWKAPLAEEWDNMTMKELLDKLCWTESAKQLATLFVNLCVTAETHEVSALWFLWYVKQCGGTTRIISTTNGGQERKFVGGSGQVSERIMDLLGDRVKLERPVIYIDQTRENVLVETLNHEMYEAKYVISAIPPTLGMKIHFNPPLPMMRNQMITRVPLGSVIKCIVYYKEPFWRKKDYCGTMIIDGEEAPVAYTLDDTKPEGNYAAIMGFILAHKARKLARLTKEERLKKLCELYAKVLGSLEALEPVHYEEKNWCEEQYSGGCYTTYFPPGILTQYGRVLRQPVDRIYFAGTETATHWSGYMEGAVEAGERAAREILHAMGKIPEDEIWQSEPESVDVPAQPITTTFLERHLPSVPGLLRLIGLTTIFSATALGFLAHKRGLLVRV
Description: Inhibition of recombinant human MAO-B expressed in baculovirus infected BT1-TN-5B1-4 cells assessed as inhibition of production of hydrogen peroxide from p-tyramine after 15 mins by Amplex Red assay

[3] = target: T2, Amine oxidase [flavin-containing] A (Homo sapiens, UniProt P21397); assay: Inhibition of recombinant human MAO-A expressed in baculovirus infected BT1-TN-5B1-4 cells assessed as inhibition of production of hydrogen peroxide from p-tyramine at 100 uM after 15 mins by Amplex Red assay; conditions: 0.25 h; for inhibition (INH): 100 µM
T2 sequence (P21397 whole entry): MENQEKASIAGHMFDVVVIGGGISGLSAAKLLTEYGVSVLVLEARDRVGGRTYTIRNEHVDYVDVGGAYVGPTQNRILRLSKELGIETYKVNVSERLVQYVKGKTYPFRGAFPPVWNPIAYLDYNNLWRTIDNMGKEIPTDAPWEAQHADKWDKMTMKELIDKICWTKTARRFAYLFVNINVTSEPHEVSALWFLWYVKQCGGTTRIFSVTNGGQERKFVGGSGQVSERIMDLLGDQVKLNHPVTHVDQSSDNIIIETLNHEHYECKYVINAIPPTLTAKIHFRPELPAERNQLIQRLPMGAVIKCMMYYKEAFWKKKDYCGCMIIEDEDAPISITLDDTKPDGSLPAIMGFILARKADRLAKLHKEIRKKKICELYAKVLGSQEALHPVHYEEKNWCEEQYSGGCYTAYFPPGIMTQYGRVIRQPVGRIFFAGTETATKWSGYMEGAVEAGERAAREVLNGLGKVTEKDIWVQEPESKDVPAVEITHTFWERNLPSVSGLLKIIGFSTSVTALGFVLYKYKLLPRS

[4] = target: T2, Amine oxidase [flavin-containing] A; assay: Inhibition of recombinant human MAO-A expressed in baculovirus infected BT1-TN-5B1-4 cells assessed as inhibition of production of hydrogen peroxide from p-tyramine after 15 mins by Amplex Red assay
[5] = target: T1, Amine oxidase [flavin-containing] B; assay: Inhibition of recombinant human MAO-B expressed in baculovirus infected BT1-TN-5B1-4 cells assessed as inhibition of production of hydrogen peroxide from p-tyramine at 100 uM after 15 mins by Amplex Red assay; conditions: 0.25 h; for inhibition (INH): 100 µM
[6] = target: T1, Amine oxidase [flavin-containing] B; assay: Inhibition of recombinant human MAO-B expressed in baculovirus infected BT1-TN-5B1-4 cells assessed as inhibition of production of hydrogen peroxide from p-tyramine at 1 mM after 15 mins by Amplex Red assay; conditions: 0.25 h, 1000 µM

Row | Structure (SMILES) | Ratio IC50 [1] | IC50 [2] [nM] | inhibition (INH) [3] | also measured
1 | Cc1ccc(/C=C/C(O)=C/C(=O)c2ccccc2O)cc1 | > 27 | 3770 | Not Active | –
2 | O=C(/C=C/C=C/c1ccccc1)c1ccccc1O | > 948 | 106 | Not Active | –
3 | O=C(/C=C(O)/C=C/c1ccccc1)c1cc(F)ccc1O | > 1980 | 50.4 | Not Active | –
4 | O=C(/C=C/C=C/c1ccc(Cl)cc1)c1ccc(O)cc1O | 1350 | 11.3 | – | IC50 [4]: 15400 nM
5 | COc1ccc(/C=C/C=C/C(=O)c2cc(Cl)ccc2O)cc1 | > 653 | 153 | Not Active | –
6 | COc1ccc(C(=O)/C=C/C=C/c2ccc(Cl)cc2)c(O)c1 | > 22200 | 4.51 | Not Active | –
7 | O=C(/C=C/C=C/c1ccc([N+](=O)[O-])cc1)c1ccccc1O | > 624 | 160 | Not Active | –
8 | O=C(/C=C/C=C/c1ccc(Cl)cc1)c1ccccc1O | 44 | 860 | – | IC50 [4]: 37700 nM
9 | O=C(/C=C/C=C/c1ccc([N+](=O)[O-])cc1)c1cc(Cl)ccc1O | > 93 | 1080 | Not Active | –
10 | O=C(/C=C(O)/C=C/c1ccc([N+](=O)[O-])cc1)c1ccccc1O | > 37 | 2670 | Not Active | –
11 | O=C(/C=C/C=C/c1ccccc1)c1cc(F)ccc1O | > 1320 | 75.8 | Not Active | –
12 | COc1cc(/C=C/C(O)=C/C(=O)c2c(O)cccc2OC)ccc1O | 2.2 | 1680 | – | IC50 [4]: 3760 nM
13 | COc1ccc(/C=C/C=C/C(=O)c2cc(F)ccc2O)cc1 | > 138 | 726 | Not Active | –
14 | O=C(/C=C/C=C/c1ccccc1)c1cc(Cl)ccc1O | > 1830 | 54.8 | Not Active | –
15 | COc1cc(/C=C/C=C/C(=O)c2ccccc2O)ccc1O | 3.1 | 502 | – | IC50 [4]: 1560 nM
16 | COc1ccc(/C=C/C(O)=C/C(=O)c2ccccc2O)cc1OC | – | – | Not Active | inhibition (INH) [5]: Not Active

Row | Structure (SMILES) | Ratio IC50 [1] | IC50 [2] [nM] | inhibition (INH) [3] | also measured
17 | O=C(NCCN1CCOCC1)c1ccc(Cl)cc1 [MOCLOBEMIDE] | – | – | – | inhibition (INH) [6]: Not Active
18 | O=C(/C=C(O)/C=C/c1ccc(O)cc1)c1ccccc1O | 57 | 26.5 | – | IC50 [4]: 1520 nM
19 | O=C(/C=C/c1ccccc1)c1cc(F)ccc1O | > 150 | 668 | – | inhibition at 100 µM [3]: 40%
20 | COc1cc(/C=C/C=C/C(=O)c2c(O)cccc2O)ccc1O | 1.5 | 969 | – | IC50 [4]: 1430 nM
21 | O=C(/C=C/C=C/c1ccc(Cl)cc1)c1cc(Cl)ccc1O | > 68 | 1460 | Not Active | –
22 | O=C(/C=C(O)/C=C/c1ccccc1)c1ccccc1O | > 86 | 1160 | Not Active | –
23 | COc1ccc(/C=C/C=C/C(=O)c2ccccc2O)cc1OC | > 6.8 | 14600 | – | inhibition at 100 µM [3]: 40%
24 | COc1ccc(/C=C/C=C/C(=O)c2c(O)cccc2O)cc1OC | 17 | 1450 | – | IC50 [4]: 25200 nM
25 | O=C(/C=C(O)/C=C/c1ccc(Cl)cc1)c1ccccc1O | – | – | Not Active | inhibition at 100 µM [5]: 40%
26 | COc1ccc(/C=C/C(O)=C/C(=O)c2ccccc2O)cc1 | – | – | Not Active | inhibition at 100 µM [5]: 40%
27 | COc1ccc(/C=C/C=C/C(=O)c2c(O)cccc2OC)cc1OC | – | – | – | inhibition (INH) [5]: Not Active; inhibition at 100 µM [3]: 40%
28 | O=C(/C=C(O)/C=C/c1ccc(O)c(O)c1)c1ccccc1O | 0.66 | 654 | – | IC50 [4]: 431 nM
29 | COc1cc(/C=C/C=C/C(=O)c2c(O)cccc2OC)ccc1O | 2.1 | 486 | – | IC50 [4]: 1030 nM
30 | O=C(/C=C(O)/C=C/c1ccc(Cl)cc1)c1cc(Cl)ccc1O | – | – | Not Active | inhibition (INH) [5]: Not Active
31 | COc1ccc(/C=C/C(O)=C/C(=O)c2c(O)cccc2OC)cc1OC | – | – | – | inhibition (INH) [5]: Not Active; inhibition at 100 µM [3]: 40%
32 | COc1ccc(/C=C/C=C/C(=O)c2ccccc2O)cc1 | > 55 | 1810 | – | inhibition at 100 µM [3]: 40%
